# Legend:
# [1] = tested on: mitochondrial membrane potential (ΔΨm) of MCF-7 breast cancer cells; assay: JC-1 flow cytometry; format: cell-based, human; settings: 24 h
# Description: (§1) This method involves marking cells with fully functional mitochondria with red fluorescence due to the accumulation of the dye in hyperpolarized mitochondrial membrane. In case of a damaged membrane, the dye decomposes into monomers, emitting green fluorescence. […] For MDA-MB-231 cells, the values were as follows: 4.25% for 5 μM and 20.95% for 10 μM concentration. The obtained results signify the compound’s capability to decrease mitochondrial potential on both cell lines at a higher concentration (Figure 6).
# (§2) The mitochondrial membrane potential (ΔΨm) was analyzed by using the JC-1 MitoScreen kit (BD Biosciences, San Diego, CA, USA). The tested compounds and reference drug were used in 1 and 5 µM concentrations on the MCF-7 cell line and 5 and 10 µM on the MDA-MB-231 cell line. After 24 h of incubation with the tested compounds, the assay was performed as described in the literature. The assay was performed using a flow cytometer (BD FACSCanto II, Becton Dickinson Biosciences Systems, San Jose, CA, USA), and results were obtained using FACSDiva software (version 6.1.3, BD Biosciences Systems, San Jose, CA, USA).
# [2] = tested on: mitochondrial membrane potential (ΔΨm) of MDA-MB-231 breast cancer cells; assay: JC-1 flow cytometry; format: cell-based, human; settings: 24 h
# Description: as §1, §2
smiles,measurement,setting,value
"O=C(O)CCCCCN1C(=O)/C(=C/C=C/c2ccc([N+](=O)[O-])o2)SC1=S [14b, 6-((Z)-5-((E)-3-(5-nitrofuran-2-yl)allylidene)-4-oxo-2-thioxothiazolidin-3-yl)hexanoic acid]",Decreased Δψ (decrease in mitochondrial potential),"[1]; MCF-7, 1 μM",8.75%
same,Decreased Δψ (decrease in mitochondrial potential),"[1]; MCF-7, 5 μM",20.25%
same,Decreased Δψ (decrease in mitochondrial potential),"[2]; MDA-MB-231, 5 μM",4.25%
same,Decreased Δψ (decrease in mitochondrial potential),"[2]; MDA-MB-231, 10 μM",20.95%
